Here are results for seven compounds from paper PMC9081605, “A High-Throughput Toxicity Screen of 42 Per- and Polyfluoroalkyl Substances (PFAS) and Functional Assessment of Migration and Gene Expression in Human Placental Trophoblast Cells” (Frontiers in Toxicology, 2022).

What all share (assay type): cell-based, human
Assay [1] concerns JEG-3 cells. The experiment in a line: CellTiter-Glo luminescent cell viability assay (HTTS). Conditions: for Viability ↑, lowest concentration at which the mean response value exceeded the mean control value ± 2*SD (rough binning): 24 h, increase; for cell viability relative to vehicle control (rough binning): after 24 h, in at least one concentration. The source says: (§1) JEG-3 human choriocarcinoma trophoblastic cells (American Type Culture Collection, VA, United States) were maintained in sterile-filtered Minimum Essential Media (MEM) supplemented with L-glutamine and phenol red (Thermo Fisher Scientific, MA, United States), 10% (v/v) heat-inactivated BenchMark Fetal Bovine Serum (Gemini Bio, CA, United States), 1% (v/v) sodium pyruvate (Thermo Fisher Scientific, MA, United States), and 1% (v/v) penicillin streptomycin (Sigma Aldrich, MO, United States). Cells were maintained in an incubator at 37°C with 5% CO2. JEG-3 cells were cultured in 10 cm tissue culture plates and cell passage numbers were recorded.
(§2) A total of 42 perfluoroalkyl substances (PFAS) were evaluated (Supplementary Table S1 contains source and purity). PFAS stock solutions were maintained in 100% methanol as previous work has shown certain PFAS degrade when stored in dimethyl sulfoxide (DMSO; [Gaballah et al., 2020]). […] The vehicle control group consisted of 97.5% media + 2.5% methanol to match the concentration of methanol in the media at the highest PFAS concentration tested (500 µM). Menadione (50–500 µM) was used as a positive control for cytotoxicity assessment. PFAS were de-identified and assigned random numbers to eliminate bias. Chemical exposure plate maps were designed so that all experimental conditions were tested in at least technical duplicates per plate. The outer edges of each plate received media alone and were excluded from all analyses to avoid edge effects. Each plate map included 14 technical replicates of the vehicle control group and 14 technical replicates of media only. Biological replicates were defined as separate 384 well plates tested on separate days using different cell passages. The experimental workflow is depicted in Supplementary Figure S1.
(§3) JEG-3 cells were counted using a Z2 Coulter Particle Counter (Beckman Coulter, CA, United States) and seeded at a density of 2,500 cells per well in black-walled, clear bottom 384 well plates (Corning, #3764) and allowed to adhere overnight. Approximately 24 h later, 384 well plates were imaged using an IncuCyte Zoom live cell imager (Essen BioScience Inc., MI, United States) to obtain baseline cellular confluence measurements prior to chemical dosing (0 h). Media was removed from wells and replaced with fresh media containing chemical treatments (exposure media) using a Viaflo liquid handling device (Integra Biosciences, NH, United States). Within 30 min of exposure media application, plates were again imaged for cellular confluence using the IncuCyte Zoom. Plates were incubated with exposure media for 24 h and then imaged again using the IncuCyte Zoom (24 h).
In the same plate evaluated for mitochondrial membrane potential, cell viability measures were duplexed using the CellTiter-Glo (CTG) Luminescent Cell Viability Assay (Promega, WI, United States). CTG reagent was added to each well at a volume of 20 µl. The plate was left at room temperature to incubate for 5 min and then 20 µl from each well was transferred to a low-volume, round-bottom, white 384 well plate (Corning, NY, United States). The CTG reagent lyses cellular and mitochondrial membranes and binds to adenosine triphosphate (ATP) released by cells, which produces a luminescence signal. The intensity of the luminescence was considered a proxy measure for the number of live cells in a well. The luminescence intensities were measured using the CLARIOstar plate reader.
HTTS data were analyzed using a custom data analysis script in R v 1.2.5019 ([R Core Team, 2019]). Briefly, raw data points corresponding to the confluence measurements at 0 and 24 h, the fluorescence intensities corresponding to MMP, and the relative luminescence units (RLU) corresponding to cell viability were imported directly from Microsoft Excel into the R programming environment, RStudio. Separate plates run on separate days using different JEG-3 passages were considered as biologic replicates. […]
On the technique in general: ATP-based viability assays read luminescence as a measure of living cells.

Assay [2] concerns JEG-3 cells. The experiment in a line: Mitochondrial membrane potential, JC-10 assay (HTTS).
Description: as §1, §2, §3
The JC-10 assay (Enzo Life Sciences, NY, United States) was used to evaluate mitochondrial membrane potential, the main bioenergetic parameter that regulates respiratory rate, ATP synthesis and reactive oxygen species generation. In cells with polarized mitochondrial membranes, the JC-10 dye localizes to the mitochondrial matrix and forms red fluorescent aggregates (540/590 nm). In cells with depolarized mitochondrial membranes, the JC-10 dye localizes in the cytoplasm and converts to a green fluorescent monomer (490/525 nm). Mitochondrial membrane potential was calculated as the ratio of the green and red fluorescence intensities within a well.
At the end of the 24 h exposure period, exposure media was removed from the plate. The plate wells were then washed with 1x phosphate buffered saline (1x PBS). After washing, the JC-10 reagent was suspended in fresh 1x PBS and 20 µl was added to each well at a final concentration of 20 μM (Enzo Life Sciences, NY, United States). The plate was incubated for 1 h at 37°C, and the fluorescence intensities at excitation/emission wavelengths of 490/525 nm and 540/590 nm were measured using a CLARIOstar (BMG Labtech, Offenburg, Germany) plate reader, respectively.
HTTS data were analyzed using a custom data analysis script in R v 1.2.5019 ([R Core Team, 2019]). […]

The test system of assay [3] is JEG-3 cells. The experiment in a line: Proliferation, change in confluence 0-24 h (IncuCyte Zoom, HTTS). The note with it: for Prolif ↓, lowest concentration at which the mean response value exceeded the mean control value ± 2*SD (rough binning) / EC50 / Prolif ↑, lowest concentration at which the mean response value exceeded the mean control value ± 2*SD (rough binning): JEG-3 cells; for Prolif ↓, lowest concentration at which the mean response value exceeded the mean control value ± 2*SD (rough binning) / Prolif ↑, lowest concentration at which the mean response value exceeded the mean control value ± 2*SD (rough binning): 24 h; for Prolif ↓, lowest concentration at which the mean response value exceeded the mean control value ± 2*SD (rough binning): decrease; for EC50: 24 h exposure, four-parameter fit, estimates meeting inclusion criteria, read-out: Proliferation EC50 ± SD; for cellular proliferation relative to vehicle control (rough binning): after 24 h, in at least one concentration; for Prolif ↑, lowest concentration at which the mean response value exceeded the mean control value ± 2*SD (rough binning): increase.
Description: as §1, §2, §3
Plate well bottom images were evaluated using automated cell masking. The automated cell masking program was developed using IncuCyte Zoom base software. Cell masking parameters were defined using a training set of JEG-3 cell images obtained prior to conducting the experiments and following IncuCyte Zoom software recommendations. Briefly, the training images were obtained from cell culture plates with varying levels of JEG-3 cellular confluence (ranging from ∼15% confluent to ∼95% confluent). Parameters for the automated cell masking were first manually set by an experimenter for 3-6 images of low (∼15–30%), medium (∼30–70%), and high confluence (∼70% or greater). The training images were then evaluated by the automated masking program and manually checked to ensure the parameters were sufficiently strict to ignore background (e.g., blank space on the plate well bottom) but adequately sensitive to detect cell borders. The masking program was then implemented on the experimental plates to obtain a baseline cellular confluence measurement at 0 h and a second confluence measurement at 24 h. […]

Setting [4] is: JEG-3 cells, 24 h exposure, four-parameter fit, estimates meeting inclusion criteria, read-out: Viability EC50 ± SD.
Where [5] appears, read: JEG-3 cells, 24 h exposure, four-parameter fit, estimates meeting inclusion criteria, read-out: MMP EC50 ± SD.

For 6:2 Fluorotelomer alcohol, the EC50 was 415 ± 70.6 µM with JEG-3 cells [1] (setting [4]); 95.1 ± 15.3 µM in the assay with JEG-3 cells [2] (JEG-3 cells, 24 h, read-out: MMP EC50 ± SE); 332 ± 44.1 µM with JEG-3 cells [2] (setting [5]).

Take `Cc1ccc(S(=O)(=O)OCC(F)(F)C(F)(F)C(F)(F)C(F)(F)F)cc1` [1H,1H-Nonafluoropentyl p-toluenesulfonate]: the “Viability ↑, lowest concentration at which the mean response value exceeded the mean control value ± 2*SD (rough binning)” value in the assay on JEG-3 cells [1] (JEG-3 cells) amounted to 50 µM. Besides, in the assay on JEG-3 cells [1], the “cell viability relative to vehicle control (rough binning)” value was “increased cell viability”. In addition, in the assay on JEG-3 cells [3], the “Prolif ↓, lowest concentration at which the mean response value exceeded the mean control value ± 2*SD (rough binning)” value is 400 µM; the EC50 was 306 ± 47.9 µM; the “cellular proliferation relative to vehicle control (rough binning)” value is listed as “reduced cellular proliferation”. Further, the EC50 with JEG-3 cells [2] (setting [5]) is 159 ± 17.7 µM.

On to `O=C([O-])C(F)(F)OC(F)(F)F.[Na+]` [2,2-Difluoro-2-(trifluoromethoxy)acetate sodium salt], for which, in the assay with JEG-3 cells [3], the “Prolif ↑, lowest concentration at which the mean response value exceeded the mean control value ± 2*SD (rough binning)” value was 50 µM and the “cellular proliferation relative to vehicle control (rough binning)” value was “increased cellular proliferation”.

For `O=C(O)C(F)(F)C(F)(F)C(F)(F)C(F)F` [5H-Octafluoropentanoic acid], the values for the EC50 in the assay with JEG-3 cells [1] (setting [4]) and in the assay on JEG-3 cells [3] were 354 ± 28.6 µM and 334 ± 56.5 µM, respectively.

With `O=S(=O)(O)CCC(F)(F)C(F)(F)C(F)(F)C(F)(F)C(F)(F)C(F)(F)F` [6:2 Fluorotelomer sulfonic acid], in the assay on JEG-3 cells [3], the “Prolif ↑, lowest concentration at which the mean response value exceeded the mean control value ± 2*SD (rough binning)” value is recorded as 50 µM and the “cellular proliferation relative to vehicle control (rough binning)” value was “increased cellular proliferation”. Further, the EC50 in the assay on JEG-3 cells [2] (JEG-3 cells, raw model output including fits that did not meet inclusion criteria, read-out: MMP EC50 ± SD (raw values)) was 70608 ± 10 µM.

As to `O=C(O)C(F)(F)C(F)(F)C(F)(F)C(F)(F)C(F)(F)C(F)F` [7H-Perfluoroheptanoic acid], the “Viability ↑, lowest concentration at which the mean response value exceeded the mean control value ± 2*SD (rough binning)” value in the assay with JEG-3 cells [1] (JEG-3 cells) was 50 µM. Moreover, in the assay on JEG-3 cells [1] (setting [4]), the EC50 is 223 ± 60.2 µM. Further, in the assay with JEG-3 cells [1], the “cell viability relative to vehicle control (rough binning)” value is listed as “increased cell viability”. Further, in the assay with JEG-3 cells [3], the “Prolif ↓, lowest concentration at which the mean response value exceeded the mean control value ± 2*SD (rough binning)” value stood at 400 µM; the EC50 was 294 ± 48.2 µM; the “cellular proliferation relative to vehicle control (rough binning)” value was “reduced cellular proliferation”.

Turning to `OCCC(F)(F)C(F)(F)C(F)(F)C(F)(F)C(F)(F)C(F)(F)C(F)(F)C(F)(F)F` [8:2 Fluorotelomer alcohol], the EC50 in the assay on JEG-3 cells [1] (Homo sapiens, JEG-3, 24 h, read-out: Viability EC50 ± SD, JEG-3 cells, 24 h exposure, four-parameter fit, estimates meeting inclusion criteria) is 35.7 ± 36.5 µM; in the assay on JEG-3 cells [1] (Homo sapiens, JEG-3, 24 h, read-out: viability EC50 ± SE, JEG-3 cells, 24 h), 36 ± 37 µM; in the assay on JEG-3 cells [2] (Homo sapiens, JEG-3, 24 h, read-out: MMP EC50 ± SD, JEG-3 cells, 24 h exposure, four-parameter fit, estimates meeting inclusion criteria), 95.1 ± 15.3 µM.
